Data taken from patent publication US20210198647A1, “Enhancers of Neurolysin Activity” (Texas Tech University System, priority 2018, published 2021).
Square brackets hold non-standard residues; d marks the D form. Peptide text beside a SMILES is read from it. Tyr(3-NO2) = N[CH](Cc1ccc(O)c([N+](=O)[O-])c1)C(=O)O

Columns and labels:
[1] = target: thimet oligopeptidase (TOP) (Homo sapiens, UniProt P52888); assay: Peptidase selectivity: quenched fluorescent substrate hydrolysis by TOP; conditions: concentration-response up to 300 μM
Sequence of thimet oligopeptidase (TOP) (P52888 whole entry): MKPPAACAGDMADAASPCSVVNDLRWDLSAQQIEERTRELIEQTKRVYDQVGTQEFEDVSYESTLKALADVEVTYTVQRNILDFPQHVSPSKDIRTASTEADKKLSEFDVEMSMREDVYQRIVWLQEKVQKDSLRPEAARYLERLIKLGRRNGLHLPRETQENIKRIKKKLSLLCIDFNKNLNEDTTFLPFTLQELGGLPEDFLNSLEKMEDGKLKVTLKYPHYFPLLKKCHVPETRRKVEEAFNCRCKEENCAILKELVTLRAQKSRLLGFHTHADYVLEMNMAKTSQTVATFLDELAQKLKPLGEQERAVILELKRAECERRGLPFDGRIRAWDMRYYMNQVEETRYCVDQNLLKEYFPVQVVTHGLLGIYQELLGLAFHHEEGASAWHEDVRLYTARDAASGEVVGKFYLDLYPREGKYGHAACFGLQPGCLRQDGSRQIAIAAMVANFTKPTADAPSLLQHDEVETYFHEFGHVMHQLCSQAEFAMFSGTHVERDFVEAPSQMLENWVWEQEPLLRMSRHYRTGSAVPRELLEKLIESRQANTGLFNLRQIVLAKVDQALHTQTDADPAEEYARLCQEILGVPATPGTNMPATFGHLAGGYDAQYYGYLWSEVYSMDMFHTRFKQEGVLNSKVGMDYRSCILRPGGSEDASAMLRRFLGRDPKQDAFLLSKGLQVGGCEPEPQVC

Neurolysin (Nln) = target: T1, Neurolysin (Nln) (Rattus norvegicus, UniProt P42676); assay: Nln activation in isolated enzyme assay (A50, Amax); type: biochemical; conditions: 95% CI in parentheses
T1 construct: polyhistidine (N); made in house; host or cells: Escherichia coli (pBAD/His vector), if the rat enzyme of b61 was used
T1 sequence (P42676 38-704): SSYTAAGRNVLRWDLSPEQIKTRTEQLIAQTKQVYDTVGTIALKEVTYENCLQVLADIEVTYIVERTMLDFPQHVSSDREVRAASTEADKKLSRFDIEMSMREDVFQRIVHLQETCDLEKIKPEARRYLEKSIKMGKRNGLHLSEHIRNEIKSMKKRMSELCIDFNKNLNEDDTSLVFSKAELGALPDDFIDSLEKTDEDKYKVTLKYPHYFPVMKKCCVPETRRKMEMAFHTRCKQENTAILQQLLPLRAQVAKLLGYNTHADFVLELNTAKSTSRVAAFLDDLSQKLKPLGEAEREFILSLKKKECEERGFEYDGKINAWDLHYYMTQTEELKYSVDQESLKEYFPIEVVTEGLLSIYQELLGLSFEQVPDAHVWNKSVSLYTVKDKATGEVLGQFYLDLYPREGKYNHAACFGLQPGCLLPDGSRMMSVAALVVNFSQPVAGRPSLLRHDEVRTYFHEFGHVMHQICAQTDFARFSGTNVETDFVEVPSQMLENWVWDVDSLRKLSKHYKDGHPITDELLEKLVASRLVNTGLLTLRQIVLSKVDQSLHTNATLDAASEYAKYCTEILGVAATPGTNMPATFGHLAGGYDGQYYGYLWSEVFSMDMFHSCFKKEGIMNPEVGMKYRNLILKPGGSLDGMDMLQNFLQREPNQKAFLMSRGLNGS

[2] = target: T2, rat recombinant neurolysin (Rattus norvegicus, UniProt P42676); assay: Enzymatic assay: QFS hydrolysis by rat recombinant neurolysin; type: biochemical; conditions: QFS 25 μM, compared to vehicle control; for % activity at 10: 10 μM compound; for % activity at (100): 100 μM compound
T2 construct: polyhistidine (N); made in house; host or cells: Escherichia coli (pBAD/His vector)
T2 sequence (P42676 38-704): as above
Method: Rat recombinant neurolysin—N-terminal polyhistidine tagged recombinant rat neurolysin was produced in Escherichia coli using a plasmid construct in pBAD/His vector system (Invitrogen) kindly provided by Dr. David W. Rodgers (University of Kentucky) (32,33). Bacterial culture was carried out in Terrific Broth in 2 L Erlenmeyer flasks using an incubator shaker (1-2400, New Brunswick Scientific). Expression was induced by addition of arabinose (1 mM final concentration), the cells were pelleted 3 h after induction and stored at −80° C. freezer. Bacterial pellets were resuspended and lysed in phosphate buffer (20 mM NaH2PO4, 500 mM NaCl, 0.05% Tween-20, pH 8.0) containing 0.25 mg/ml lysozyme, 1 mM phenylmethylsulfonyl fluoride, 0.05 mg/ml DNAse and 0.02 mg/ml RNase, followed by brief sonication. After centrifugation (40,000×g, 20 min at 4° C.) the supernatant was applied to a Ni-NTA Superflow cartridge (Qiagen), followed by washing and elution of recombinant neurolysin with phosphate buffer containing 25 and 250 mM imidazole, respectively. The eluted protein was further purified by size exclusion chromatography using a TSK gel BioAssist G2SWxl column (Tosoh bioscience) in AKTA Purifier FPLC system (GE Healthcare). […] Specific activity of recombinant neurolysin was determined by an enzymatic assay described below.
All assays were initiated by addition of QFS (100 μl assay volume in 96-well plates), and each experimental sample was present in duplicate.
In all experiments, test compounds were incubated with neurolysin for 10 min at 37° C. before addition of the substrate to start the reaction. All test compounds were dissolved in DMSO at 10 to 50 mM stock concentrations.
Statistical Analyses—statistical analyses and curve fitting were conducted with GraphPad Prism 6.0 software. For each enzymatic reaction, slope of the line which represents the initial velocity (Vo) for the reaction progress curve was calculated using the liner regression model of the software (Vo=Slope=Δ fluorescent intensity of the reaction product/Δ time). EC50 values for the modulators were calculated by fitting initial velocity values for hydrolysis of QFS by neurolysin in the presence of varying concentrations of a modulator into a nonlinear regression model for the three-parameter log(stimulator) vs. response equation [Y=Bottom+(Top−Bottom)/(1+10^((Log EC50−X)))].

effect on activity of TOP (in words) [1] | EC50 (Neurolysin (Nln); read-out: A50 (concentration required to activate Nln by 50%)) | Amax (maximum % activation achieved) (Neurolysin (Nln); 100% = normal enzyme turnover) | SMILES | % activity at 10 [2] | % activity at (100) [2]
No appreciable inhibition | 4.4 µM | 210.9 (191.7 to 231.9) % | N[C@@H](Cc1c[nH]cn1)C(=O)NCc1ccc2ccccc2c1 [Compound 10a, (S)-2-amino-3-(1H-imidazol-4-yl)-N-(naphthalen-2-ylmethyl)propanamide] |  | 
 |  |  | CC1CN(CCCN)C(C)CN1CCCN (stereo not drawn) [Compound 14541] | 97% | 103%
 |  |  | CN1CCC(O)(c2ccccc2)C(CCC(=O)N2CCCC2)C1.Cl (stereo not drawn) [Compound 15180] | 102% | 95%
 |  |  | O=C(O)C1C2C=CC(O2)C1C(=O)NCCCN1CCOCC1 (stereo not drawn) [Compound 47096] | 101% | 111%
 |  |  | CC(NCCN1CCCC1)C(O)c1ccc(O)c(O)c1.Cl (stereo not drawn) [Compound 48778] | 89% | 84%
 |  |  | COCN1CCC2N(COC)CCC3N(COC)CCC1N23 (stereo not drawn) [Compound 82001] | 105% | 100%
 |  |  | O=P1(NCC2CCCO2)OCC2(CO1)COP(=O)(NCC1CCCO1)OC2 (stereo not drawn) [Compound 88659] | 100% | 100%
 |  |  | NCC(=O)N1CCC[C@H]1C(=O)NCC(=O)NCC(=O)O [Compound 89624] (H-GPGG-OH) | 102% | 38%
 |  |  | CCOCCOCCN1CNc2nc(N)[nH]c(=O)c2C1 [Compound 92597] | 105% | 98%
 |  |  | CN(CCc1cnc2nc(N)[nH]c(=O)c2n1)c1ccc(C(=O)O)cc1 [Compound 121184] | 77% | 18%
 |  |  | CNCCc1cn(C2OC(CO)C(O)C(O)C2O)cn1 (stereo not drawn) [Compound 131922] | 96% | 28%
 |  |  | N#CC(C#N)N=Nc1ccc(S(=O)(=O)N=C(N)N)cc1 [Compound 134119] | 83% | 41%
 |  |  | Clc1cc(Cl)c(C[N+]23CN4CN(CN(C4)C2)C3)cc1Cl.[Cl-] [Compound 155877] | 82% | 4%
 |  |  | CC1(C)SC(C(NC(=O)Cc2ccccc2)C(=O)O)NC1C(=O)O (stereo not drawn) [Compound 163084] | 103% | 102%
 |  |  | S=C(NCN1CCNCC1)C(=S)NCN1CCNCC1 [Compound 203396] | 102% | 106%
 |  |  | COC1OC2COC(c3ccccc3)OC2C(N=Cc2ccccc2)C1O (stereo not drawn) [Compound 210826] | 101% | 105%
 |  |  | COc1ccc2c(c1)c(=O)c(C(=O)O)cn2CCCOc1ccc([N+](=O)[O-])cc1 [Compound 211002] | 104% | 100%

effect on activity of TOP (in words) [1] | EC50 (Neurolysin (Nln); read-out: A50 (concentration required to activate Nln by 50%)) | Amax (maximum % activation achieved) (Neurolysin (Nln); 100% = normal enzyme turnover) | SMILES | % activity at 10 [2] | % activity at (100) [2]
 |  |  | Cc1cn(C(C=O)OC(C=O)CO)c(=O)[nH]c1=O (stereo not drawn) [Compound 266752] | 107% | 97%
 |  |  | CCCCCCN(C)C12CN3CN(CN(C3)C1)C2 [Compound 281707] | 109% | 113%
 |  |  | CC1(C)CC(=O)C(CC(=O)c2ccccc2)=C(NN=C(N)N)C1 [Compound 282137] | 106% | 94%
 |  |  | NCCCNCCSP(=O)(O)O [Compound 296961] | 106% | 127%
 |  |  | NCC(SSC(CN)C(=O)O)C(=O)O (stereo not drawn) [Compound 302851] | 104% | 80%
 |  |  | CC(C)CC(NC(=O)C(N)CC(=O)O)C(=O)O (stereo not drawn) [Compound 332636] (H-Asp-Leu-OH; configuration not given here) | 103% | 64%
 |  |  | CC(C)CC(NC(=O)C(C)N)C(=O)NCC(=O)O (stereo not drawn) [Compound 333568] | 106% | 77%
 |  |  | Cl.NC(=O)C(Cc1ccc(O)cc1)NC(=O)C(N)Cc1c[nH]c2ccccc12 (stereo not drawn) [Compound 339919] (H-Trp-Tyr-NH2; configuration not given here) | 100% | 63%
 |  |  | CC(C)C(N)C(=O)NC(C(=O)NS(=O)(=O)c1ccc(N)cc1)C(C)C (stereo not drawn) [Compound 340049] | 94% | 52%
 |  |  | Cl.NC(=O)C(Cc1ccc(O)c([N+](=O)[O-])c1)NC(=O)C(N)Cc1ccccc1 (stereo not drawn) [Compound 343028] (H-Phe-[Tyr(3-NO2)]-NH2; configuration not given here) | 98% | 73%
 |  |  | CSCCC(N)[P+](=O)O (stereo not drawn) [Compound 359097] | 87% | 92%
 |  |  | O=C(O)CNC(=O)CNC(=O)c1ccc2ccccc2n1 [Compound 400844] | 104% | 84%
 |  |  | CC(NCCN(C)C)C1CC2CCCCN2C1 (stereo not drawn) [Compound 600947] | 107% | 105%
 |  |  | CCC1COc2nc(=O)c(C=NCCCN(C)C)c(N)n21 (stereo not drawn) [Compound 608820] | 102% | 108%
 |  |  | O=C1CSC(c2cccnc2)N1CCN1C(=O)CSC1c1cccnc1 (stereo not drawn) [Compound 615399] | 108% | 108%
 |  |  | NC1=C(O)/C(=N/NS(=O)(=O)c2ccccc2)C(c2ccc3c(c2)OCO3)O1 (stereo not drawn) [Compound 640354] | 79% | 76%
 |  |  | COC(=O)CCN1CCN(CCO)CC1C (stereo not drawn) [Compound 659264] | 104% | 107%
